≈ marks a conversion by molar mass, not a printed value. Like-named read-outs stand apart in the source and are kept apart here.
Columns and labels:
Type in all cases: cell-based
C. krusei = test: Antifungal MIC (RPMI-1640 microdilution); conditions: Pichia kudriavzevii, ATCC6258, read-out: MIC 50% inhibition; isolate ATCC 6258
Candida auris = test: Antifungal MIC (RPMI-1640 microdilution); conditions: Candidozyma auris
Blastomyces dermatitidis = test: Antifungal MIC (RPMI-1640 microdilution)
Coccidioides sp. = test: microbe, parasite or virus in culture
P. variotii = test: Antifungal MIC (RPMI-1640 microdilution); conditions: Paecilomyces variotii, isolate MYA-3630
Candida glabrata = test: Antifungal MIC (RPMI-1640 microdilution); conditions: Nakaseomyces glabratus
Emergomyces sp. = test: Antifungal MIC (RPMI-1640 microdilution)
Cryptococcus neoformans = test: Antifungal MIC (RPMI-1640 microdilution); conditions: Cryptococcus neoformans
Candida albicans = test: Antifungal MIC (RPMI-1640 microdilution)
Candida parapsilosis = test: Antifungal MIC (RPMI-1640 microdilution); conditions: for MIC50: Lodderomyces parapsilosis
Histoplasma capsulatum = test: microbe, parasite or virus in culture
Candida guilliermondii = test: Antifungal MIC (RPMI-1640 microdilution); conditions: Meyerozyma guilliermondii
Scedosporium sp. = test: Antifungal MIC (RPMI-1640 microdilution); conditions: Scedosporium
Staphylococcus aureus = test: Antibacterial MIC (broth microdilution)
Streptococcus pneumoniae = test: Antibacterial MIC (broth microdilution); conditions: Streptococcus pneumoniae, CA-MHB with 3% LHB
Sporothrix sp. = test: Antifungal MIC (RPMI-1640 microdilution)
Apophysomyces sp. = test: Antifungal MIC (RPMI-1640 microdilution)
Saksenaea sp. = test: Antifungal MIC (RPMI-1640 microdilution)
Rhizopus arrhizus = test: Antifungal MIC (RPMI-1640 microdilution)
[1] = tested on: M. tuberculosis [ATCC #27294]; test: MIC against M. tuberculosis in 7H9 media; conditions: Mycobacterium tuberculosis, read-out: MIC
K. pneumoniae = test: Antibacterial MIC (broth microdilution); conditions: Klebsiella pneumoniae
E. coli = test: Antibacterial MIC (broth microdilution)
Procedure: Growth Medium—Cation adjusted Mueller-Hinton broth was used as the test medium. Broth for panel preparation was prepared from commercial dehydrated medium (Difco formulation, BD Diagnostics, catalog number 275730).
Dilution of Investigational Agents—Polystyrene test tubes were used to prepare the drug dilutions and sterile U-shaped 96-well polystyrene microtiter trays were used for performing the MIC assays. Stock solutions of the investigational agents were prepared at concentrations 100-times the highest concentration to be tested (6400-1.25 μg/ml) using dimethyl sulfoxide. Aliquots of the stock solutions were dispensed into polypropylene vials and stored at −20° C. Further dilutions (1:50) were made in the culture medium (cation-adjusted Mueller-Hinton medium).
After the dilutions of the working 2-fold investigational antibacterial solutions were prepared, 50 μL of each concentration was transferred into rows of the first 10 wells of each 12-well column of the U-shaped disposable 96-well microtiter trays using a multichannel pipettor. The 11th well in each row served as the sterility control, and the 12th well contained only culture medium to serve as the growth control for each isolate. In like manner, the control drug for the organism being tested was prepared in a separate 96 well panel exactly as described above. A 50 μL volume of the standardized inoculum suspension of each test isolate was prepared in culture medium to directly inoculate each test well of the drug containing microtiter tray.
Inoculum Preparation—Colonies of each strain generated on sheep blood agar plates with overnight growth at 35° C. in ambient air were used to directly prepare a suspension equivalent in density to the 0.5 McFarland opacity standard. The exact turbidity of each suspension was determined using a desktop portable photometer. For panels containing 2× drug concentrations, a 1:100 dilution of the McFarland organism suspension was prepared in cation-adjusted Mueller-Hinton broth and 50 μL aliquots of each test (and control) strain was added to each well of the designated rows of the microtiter trays using a multichannel pipettor. The target inoculum concentration was 5×10^5 CFU/ml in each well.
Trays were removed and each well were inspected for evidence of growth (turbidity). The MIC was defined as the lowest concentration of the investigational agent and the control drug that prevents visibly discernible growth in the test wells.

P. aeruginosa = test: Antibacterial MIC (broth microdilution); conditions: Pseudomonas aeruginosa
A. baumannii = test: Antibacterial MIC (broth microdilution); conditions: Acinetobacter baumannii

Structure (SMILES): OC(Cn1cncn1)(Cn1cncn1)c1ccc(F)cc1F [Fluconazole]
- MIC50 (C. krusei): 32 µg/mL (≈ 104 µM)
- MIC50 (Candida auris; read-out: MIC 50% inhibition, isolate DI17-46): > 64 µg/mL
- MIC50 (Candida auris; read-out: MIC 50% inhibition, isolate DI17-47): > 64 µg/mL
- MIC50 (Candida auris; read-out: MIC 50% inhibition, isolate DI17-48): 2 µg/mL (≈ 6.53 µM)
- MIC50 (Blastomyces dermatitidis; read-out: MIC 50% inhibition, isolate Blasto1): ≤ 0.03 µg/mL
- MIC50 (Blastomyces dermatitidis; read-out: MIC 50% inhibition, isolate Blasto2): ≤ 0.03 µg/mL
- MIC50 (Blastomyces dermatitidis; read-out: MIC 50% inhibition, isolate Blasto3): ≤ 0.03 µg/mL
- MIC50 (Coccidioides sp.; read-out: MIC 50% inhibition, isolate Cocci1): 16 µg/mL (≈ 52.2 µM)
- MIC50 (Coccidioides sp.; read-out: MIC 50% inhibition, isolate Cocci2): 32 µg/mL (≈ 104 µM)
- MIC50 (Coccidioides sp.; read-out: MIC 50% inhibition, isolate D117-143): 4 µg/mL (≈ 13.1 µM)
- MIC50 (P. variotii; read-out: MIC 50% inhibition): 8 µg/mL (≈ 26.1 µM)
- MIC50 (Candida glabrata; read-out: MIC 50% inhibition, isolate 05-62): > 64 µg/mL
- MIC50 (Candida glabrata; read-out: MIC 50% inhibition, isolate 05-761): 8 µg/mL (≈ 26.1 µM)
- MIC50 (Candida glabrata; read-out: MIC 50% inhibition, isolate CG3): 32 µg/mL (≈ 104 µM)
- MIC50 (Emergomyces sp.; read-out: MIC 50% inhibition, isolate Emerg2): ≤ 0.03 µg/mL
- MIC50 (Emergomyces sp.; read-out: MIC 50% inhibition, isolate Emerg3): ≤ 0.03 µg/mL
- MIC50 (Cryptococcus neoformans; read-out: MIC 50% inhibition, isolate CN3): 64 µg/mL (≈ 209 µM)
- MIC50 (Cryptococcus neoformans; read-out: MIC 50% inhibition, isolate H99): 16 µg/mL (≈ 52.2 µM)
- MIC50 (Cryptococcus neoformans; read-out: MIC 50% inhibition, isolate USC1597): 4 µg/mL (≈ 13.1 µM)
- MIC50 (Candida albicans; ATCC90028, read-out: MIC 50% inhibition, isolate ATCC 90028): 0.25 µg/mL (≈ 0.816 µM)
- MIC50 (Candida albicans; read-out: MIC 50% inhibition, isolate CA3): > 64 µg/mL
- MIC50 (Candida albicans; read-out: MIC 50% inhibition, isolate SC5314): 0.5 µg/mL (≈ 1.63 µM)
- MIC50 (Candida parapsilosis; ATCC22019, read-out: MIC 50% inhibition, isolate ATCC 22019): 1 µg/mL (≈ 3.27 µM)
- MIC50 (Candida parapsilosis; read-out: MIC 50% inhibition, isolate CP1): 0.5 µg/mL (≈ 1.63 µM)
- MIC 50% inhibition (Candida parapsilosis; isolate CP2): 0.5 µg/mL (≈ 1.63 µM)
- MIC 50% inhibition (Candida parapsilosis; isolate CP3): 0.5 µg/mL (≈ 1.63 µM)
- MIC50 (Histoplasma capsulatum; read-out: MIC 50% inhibition, isolate HC1): 0.125 µg/mL (≈ 0.408 µM)
- MIC50 (Histoplasma capsulatum; read-out: MIC 50% inhibition, isolate HC2): ≤ 0.03 µg/mL
- MIC50 (Histoplasma capsulatum; read-out: MIC 50% inhibition, isolate HC3): ≤ 0.03 µg/mL
- MIC50 (Candida guilliermondii; read-out: MIC 50% inhibition, isolate Cgui1): 1 µg/mL (≈ 3.27 µM)
- MIC50 (Candida guilliermondii; read-out: MIC 50% inhibition, isolate Cgui2): 2 µg/mL (≈ 6.53 µM)
- MIC50 (Candida guilliermondii; read-out: MIC 50% inhibition, isolate Cgui3): 2 µg/mL (≈ 6.53 µM)
- MIC50 (Scedosporium sp.; read-out: MIC 50% inhibition, isolate Scedo1): 0.125 µg/mL (≈ 0.408 µM)
- MIC50 (Scedosporium sp.; read-out: MIC 50% inhibition, isolate 00-180): 0.125 µg/mL (≈ 0.408 µM)
- MIC50 (Scedosporium sp.; read-out: MIC 50% inhibition, isolate LPI): 4 µg/mL (≈ 13.1 µM)

Structure (SMILES): CN[C@H](CC(C)C)C(=O)N[C@H]1C(=O)N[C@@H](CC(N)=O)C(=O)N[C@H]2C(=O)N[C@H]3C(=O)N[C@H](C(=O)N[C@H](C(=O)O)c4cc(O)cc(O)c4-c4cc3ccc4O)[C@H](O)c3ccc(c(Cl)c3)Oc3cc2cc(c3O[C@@H]2O[C@H](CO)[C@@H](O)[C@H](O)[C@H]2O[C@H]2C[C@](C)(N)[C@H](O)[C@H](C)O2)Oc2ccc(cc2Cl)[C@H]1O [Vancomycin]
- MIC (Staphylococcus aureus; Staphylococcus aureus): 1 µg/mL (≈ 0.69 µM)
- MIC (Staphylococcus aureus; Staphylococcus aureus, ATCC29213): 1 µg/mL (≈ 0.69 µM)
- MIC (Staphylococcus aureus; isolate 6229): 1 µg/mL (≈ 0.69 µM)
- MIC (Streptococcus pneumoniae; ATCC49619, isolate ATCC 49619): ≤ 0.125 µg/mL
- MIC (Streptococcus pneumoniae; isolate CO314937): ≤ 0.125 µg/mL
- MIC (Streptococcus pneumoniae; isolate MD77773): 0.25 µg/mL (≈ 0.173 µM)

Structure (SMILES): CC[C@@H]([C@H](C)O)n1ncn(-c2ccc(N3CCN(c4ccc(OC[C@@H]5CO[C@@](Cn6cncn6)(c6ccc(F)cc6F)C5)cc4)CC3)cc2)c1=O [Posaconazole]
- MIC (P. variotii; read-out: MIC 100% inhibition): ≤ 0.03 µg/mL
- MIC (Sporothrix sp.; read-out: MIC 100% inhibition, isolate Sporo1): 0.06 µg/mL (≈ 0.0856 µM)
- MIC (Sporothrix sp.; read-out: MIC 100% inhibition, isolate Sporo2): 1 µg/mL (≈ 1.43 µM)
- MIC (Sporothrix sp.; read-out: MIC 100% inhibition, isolate Sporo3): 0.06 µg/mL (≈ 0.0856 µM)
- MIC (Apophysomyces sp.; read-out: MIC 100% inhibition, isolate Apo1): 0.06 µg/mL (≈ 0.0856 µM)
- MIC (Apophysomyces sp.; read-out: MIC 100% inhibition, isolate Apo2): ≤ 0.03 µg/mL
- MIC (Apophysomyces sp.; read-out: MIC 100% inhibition, isolate Apo3): 0.5 µg/mL (≈ 0.713 µM)
- MIC (Saksenaea sp.; read-out: MIC 100% inhibition, isolate Sak1): ≤ 0.03 µg/mL
- MIC (Saksenaea sp.; read-out: MIC 100% inhibition, isolate Sak2): 0.06 µg/mL (≈ 0.0856 µM)
- MIC (Saksenaea sp.; read-out: MIC 100% inhibition, isolate Sak3): ≤ 0.03 µg/mL
- MIC (Rhizopus arrhizus; read-out: MIC 100% inhibition, isolate 99-880): 1 µg/mL (≈ 1.43 µM)
- MIC (Rhizopus arrhizus; read-out: MIC 100% inhibition, isolate 99-892): 0.25 µg/mL (≈ 0.357 µM)
- MIC (Rhizopus arrhizus; read-out: MIC 100% inhibition, isolate RAI): 0.125 µg/mL (≈ 0.178 µM)

Structure (SMILES): NNC(=O)c1ccncc1 [Isoniazid]
- MIC ([1]; ATCC27294, 168 h, 7H9 with BSA, DPPC and cholesterol, 1 week): 0.2 µM (≈ 0.0274 µg/mL)
- MIC ([1]; ATCC27294, 168 h, 7H9 with casitone and DPPC, 1 week): 0.07 µM (≈ 0.0096 µg/mL)
- MIC ([1]; ATCC27294, 168 h, 7H9 with glucose and BSA, 1 week): 0.2 µM (≈ 0.0274 µg/mL)
- MIC ([1]; ATCC27294, 168 h, 7H9 with glucose and casitone, 1 week): 0.1 µM (≈ 0.0137 µg/mL)
- MIC ([1]; ATCC27294, 336 h, 7H9 with BSA, DPPC and cholesterol, 2 weeks): 0.3 µM (≈ 0.0411 µg/mL)
- MIC ([1]; ATCC27294, 336 h, 7H9 with casitone and DPPC, 2 weeks): 0.1 µM (≈ 0.0137 µg/mL)
- MIC ([1]; ATCC27294, 336 h, 7H9 with glucose and BSA, 2 weeks): 0.3 µM (≈ 0.0411 µg/mL)
- MIC ([1]; ATCC27294, 336 h, 7H9 with glucose and casitone, 2 weeks): 0.15 µM (≈ 0.0206 µg/mL)

Structure (SMILES): C[C@@H](O)[C@H]1C(=O)N2C(C(=O)O)=C(S[C@@H]3CN[C@H](C(=O)N(C)C)C3)[C@H](C)[C@H]12 [Meropenem]
- MIC (K. pneumoniae; ATCC70063, isolate ATCC 70063): ≤ 0.125 µg/mL
- MIC (K. pneumoniae; isolate AR-97): 64 µg/mL (≈ 167 µM)
- MIC (K. pneumoniae; isolate AR-113): > 64 µg/mL
- MIC (E. coli; Escherichia coli, ATCC25922, isolate ATCC 25922, read-out: MIC): ≤ 0.125 µg/mL
- MIC (E. coli; Escherichia coli, isolate J4243 (MO72), read-out: MIC): ≤ 0.125 µg/mL
- MIC (E. coli; isolate J4244 (JJ1886)): ≤0.125 µg/mL
- MIC (P. aeruginosa; ATCC27853, isolate ATCC 27853): 0.25 µg/mL (≈ 0.652 µM)
- MIC (P. aeruginosa; isolate AR-230): > 64 µg/mL
- MIC (P. aeruginosa; isolate J4242): 8 µg/mL (≈ 20.9 µM)
- MIC (A. baumannii; ATCC17978, isolate ATCC 17978): ≤ 0.125 µg/mL
- MIC (A. baumannii; isolate AR-88): > 64 µg/mL
- MIC (A. baumannii; isolate AR-273): 64 µg/mL (≈ 167 µM)
